In patent US20130295100A1, “MARKERS FOR ACUTE KIDNEY INJURY AND USES THEREOF” (OSPEDALE SAN RAFFAELE S.R.L., priority 2010, published 2013):

Experiments:
ouabain antiserum = conditions: radioimmunoassay for endogenous ouabain, as previously described; cited from earlier work
[1] = test system: normotensive Sprague-Dawley rats; assay: Chronic subcutaneous ouabain infusion in rats (OHR): blood pressure and renal function; format: in vivo, rat; conditions: 8 weeks
Experimental: Care and husbandry of rats complied with the European Directives No. 86/609 and with the Italian Law (DL116, Jan. 27, 1992). The authorization for animal use in Prassis Sigma-Tau laboratories was obtained from the Italian Health Authority. Ouabain hypertensive rats (OHR) were obtained by subcutaneous ouabain infusion (Sprague-Dawley rats, 15 μg/kg/day ouabain from Sigma-Aldrich, n=7) with osmotic mini-pumps for 8 weeks as described.^1,2 Normotensive control rats received sterile saline (n=7). Systolic blood pressure and heart rate were recorded weekly in conscious rats by tail-cuff plethysmography.
Rats were housed in single metabolic cages and 24 h-urine samples were collected and analyzed for total protein and creatinine excretion (kits from Sentinel Diagnostics, Milan, Italy) as described in Doi M, et al.^29 At sacrifice, rat plasma was collected for creatinine determination.

[2] = test system: nephrin, synaptopodin (podocyte proteins); assay: Immunofluorescence of podocyte proteins in kidney sections of ouabain-infused rats; format: in vivo, rat; conditions: OHR vs control rats
Experimental: Immunofluorescence was performed on rat kidney sections by using anti-nephrin and anti-synaptopodin antibodies as described.^30

[3] = test system: nephrin, synaptopodin (podocyte proteins); assay: Western blot of renal microsomes from ouabain-infused rats; format: in vivo, rat; conditions: OHR vs control rats
Experimental: Renal microsomes were prepared from ouabain-infused rats and saline controls as described^30 and analyzed by Western blotting.
(§1) Samples were analyzed by Western blotting using specific antibodies against podocyte markers, such as nephrin (Santa Cruz Biotechnology), podocin (Sigma-Aldrich), synaptopodin (Progen Biotechnik), ZO-1 (Invitrogen) as described in Ferrandi M, et al (J Mol Med 2010; 88:203-217).^30 Actin (Sigma-Aldrich) was used for normalization.

[4] = test system: glomerular podocytes (nephrin, synaptopodin expression); assay: Western blot of cultured rat glomerular podocytes incubated with ouabain; format: cell-based; conditions: 10^−9 M ouabain for 4 days, vs control group
Experimental: Kidneys were taken from 7-10 day-old rats and glomerular podocytes were isolated and cultured as described.^30 Cell characterization was performed using markers of podocytes (nephrin, podocin, synaptopodin), epithelial (cytokeratin), smooth muscle (a-SMC) and endothelial cells (CD31). Podocytes were incubated in the absence or presence of 10^−9 M ouabain for 4 days and analyzed by Western blotting.
as §1

hypertension in patients = conditions: reference 34; cited from earlier work
[5] = ouabain 15 μg/kg/day s.c., OHR vs saline controls, p<0.05

In the case of `C[C@H]1O[C@@H](O[C@H]2[C@@H](O)C[C@H](O[C@H]3[C@@H](O)C[C@H](O[C@H]4CC[C@@]5(C)[C@H](CC[C@@H]6[C@@H]5C[C@@H](O)[C@]5(C)[C@@H](C7=CC(=O)OC7)CC[C@]65O)C4)O[C@@H]3C)O[C@@H]2C)C[C@H](O)[C@@H]1O` [digoxin], the “cross-reactivity of ouabain antiserum” value (ouabain antiserum) is listed as “approximately 0.42%”.
In the case of `C[C@@H]1O[C@@H](O[C@H]2C[C@@H](O)[C@]3(CO)[C@H]4[C@H](O)C[C@]5(C)[C@@H](C6=CC(=O)OC6)CC[C@]5(O)[C@@H]4CC[C@]3(O)C2)[C@H](O)[C@H](O)[C@H]1O` [ouabain], the “systolic blood pressure (SBP)” value ([1]; ouabain 15 μg/kg/day s.c. by osmotic mini-pump, OHR vs saline controls, n=7) is reported as “significantly raised”, the urinary creatinine ([1]; ouabain 15 μg/kg/day s.c., 24 h urine, OHR) is reported as 33.8±1.4 mg/24 h and the “reduction of creatinine clearance vs controls” value ([1]; ouabain 15 μg/kg/day s.c., OHR vs saline controls, p<0.02) is reported as −18%. The “increase of plasma creatinine vs controls” value [1, 5] was “+14%”, the “urinary protein excretion, change vs controls” value [1, 5] was “+54%” and the “synaptopodin staining in kidney sections” value ([2]; data not shown) was “but not for synaptopodin”. The “nephrin staining in kidney sections” value ([2]; three rats per group) was “significant reduction of staining”, the “nephrin expression in renal microsomes, normalized for actin” value [3] was “reduced expression” and the “synaptopodin expression in renal microsomes” value ([3]; data not shown) was “but not of synaptopodin”. The “nephrin expression in podocytes, normalized for actin” value [4] was “decreased expression”.
In the case of `C[C@]12CC[C@H](O)C[C@H]1CC[C@@H]1[C@@H]2CC[C@]2(C)[C@@](O)(c3ccoc3)CC[C@]12O` [rostafuroxin], the “antihypertensive activity in patients” value (hypertension in patients) is given as “has been shown to have antihypertensive activity”.
In the case of `CC(=O)S[C@@H]1CC2=CC(=O)CC[C@]2(C)[C@H]2CC[C@@]3(C)[C@@H](CC[C@@]34CCC(=O)O4)[C@H]12` [spironolactone], the “cross-reactivity of ouabain antiserum” value (ouabain antiserum) is listed as under 0.01%.
